Measured values reported in ChEMBL document CHEMBL1137363, “Discovering inhibitors of human sirtuin type 2: novel structural scaffolds” (J Med Chem, 2006).

What follows are molecules tested against T1, NAD-dependent protein deacetylase sirtuin-2 (Homo sapiens, UniProt Q8IXJ6) (assay: Inhibition of human recombinant SIRT2).
T1 sequence (Q8IXJ6 whole entry): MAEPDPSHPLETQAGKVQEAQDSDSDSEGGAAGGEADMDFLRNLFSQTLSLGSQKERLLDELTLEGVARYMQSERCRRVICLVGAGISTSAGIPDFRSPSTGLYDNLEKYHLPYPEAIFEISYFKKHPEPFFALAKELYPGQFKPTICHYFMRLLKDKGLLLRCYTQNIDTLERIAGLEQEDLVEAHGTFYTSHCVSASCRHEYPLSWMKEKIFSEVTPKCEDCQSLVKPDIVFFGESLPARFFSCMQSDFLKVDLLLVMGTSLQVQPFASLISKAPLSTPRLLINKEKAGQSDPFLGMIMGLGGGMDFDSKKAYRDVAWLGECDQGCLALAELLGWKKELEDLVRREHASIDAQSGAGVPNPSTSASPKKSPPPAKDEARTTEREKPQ

| IC50 [µM] | Compound |
| --- | --- |
| 200 | CCCCC(CC)COCCCNC(=O)CCC(C)(c1ccc(O)cc1)c1ccc(O)cc1 (stereo not drawn) |
| 136 | CC1(C)CCC(C)(C)c2cc(-c3csc(C4CCN(Cc5ccc(N(CCC#N)CCC#N)cc5)CC4)n3)ccc21 |
| 91 | OCc1cccc(/C=N/c2cc(/N=C/c3cccc(CO)c3O)cc(C(F)(F)F)c2)c1O |
